From ChEMBL document CHEMBL5385872, “Design and syntheses of a bimolecular STING agonist based on the covalent STING antagonist” (Eur J Med Chem, 2023)
Calls of active or inactive are those of the source.

Assays:
[1] = target: Stimulator of interferon genes protein (Homo sapiens) (UniProt Q86WV6); assay: Induction of STING-dependent gene expression in human HT-1080 cells assessed as IFNbeta mRNA expression at 20 uM incubated for 8 hrs by qRT-PCR analysis; type: cell-based; settings: filed as agonist
Chain of Stimulator of interferon genes protein (Homo sapiens) (Q86WV6 whole entry): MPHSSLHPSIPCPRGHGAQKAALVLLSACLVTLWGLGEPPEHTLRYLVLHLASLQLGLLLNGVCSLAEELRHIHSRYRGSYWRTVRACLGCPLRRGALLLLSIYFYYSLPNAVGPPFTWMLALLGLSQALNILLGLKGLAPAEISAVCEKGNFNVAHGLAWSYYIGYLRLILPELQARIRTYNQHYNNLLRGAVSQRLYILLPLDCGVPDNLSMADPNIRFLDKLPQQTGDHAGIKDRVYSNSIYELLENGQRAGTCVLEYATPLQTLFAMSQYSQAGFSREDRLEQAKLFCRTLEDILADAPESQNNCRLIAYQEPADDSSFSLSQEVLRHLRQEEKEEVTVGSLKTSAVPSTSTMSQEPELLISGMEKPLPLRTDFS

[2] = target: T1, Stimulator of interferon genes protein (Mus musculus) (UniProt Q3TBT3); assay: Agonist activity at STING in mouse BMDC cells assessed as change in TBK1 phosphorylation (initially increase and then decreased) at 20 uM measured after 5 hrs by Western blot analysis; type: cell-based; settings: filed as agonist
T1 sequence (whole entry): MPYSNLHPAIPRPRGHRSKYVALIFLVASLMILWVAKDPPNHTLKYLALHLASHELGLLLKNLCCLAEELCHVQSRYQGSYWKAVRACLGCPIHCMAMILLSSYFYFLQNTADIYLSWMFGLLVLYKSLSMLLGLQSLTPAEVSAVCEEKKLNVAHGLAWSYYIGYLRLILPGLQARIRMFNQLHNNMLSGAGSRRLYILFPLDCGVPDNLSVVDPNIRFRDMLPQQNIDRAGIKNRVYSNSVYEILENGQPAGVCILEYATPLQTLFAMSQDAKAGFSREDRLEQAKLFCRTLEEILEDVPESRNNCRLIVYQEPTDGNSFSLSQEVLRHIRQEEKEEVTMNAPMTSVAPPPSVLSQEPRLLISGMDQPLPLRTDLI

[3] = target: T1, Stimulator of interferon genes protein (Mus musculus); assay: Agonist activity at STING in mouse BMDM cells assessed as change in TBK1 phosphorylation (initially increase and then decreased) at 20 uM measured after 5 hrs by Western blot analysis; type: cell-based; settings: filed as agonist
[4] = target: Stimulator of interferon genes protein (Homo sapiens) (UniProt Q86WV6); assay: Induction of STING-dependent gene expression in human HT-1080 cells assessed as IFNalpha mRNA expression at 20 uM incubated for 8 hrs by qRT-PCR analysis; type: cell-based; settings: filed as agonist
Mus musculus [5] = assay: Induction of immune-activation effect in wild type female BALB/c mouse assessed as increase in serum IFNbeta level at 15 to 30 mg/kg, ip measured after 24 to 48 hrs by ELISA relative to control; type: functional, organism-based; settings: dose 15-30 mg/kg, time 24-48 hrs
[6] = target: T1, Stimulator of interferon genes protein (Mus musculus); assay: Induction of STING-dependent gene expression in mouse BMDC cells assessed as IFNalpha mRNA expression at 20 uM incubated for 8 hrs by qRT-PCR analysis; type: cell-based; settings: filed as agonist
Mus musculus [7] = assay: Induction of immune-activation effect in wild type female BALB/c mouse assessed as increase in serum TNFalpha level at 15 to 30 mg/kg, ip measured after 24 to 48 hrs by ELISA relative to control; type: functional, organism-based; settings: dose 15-30 mg/kg, time 24-48 hrs
[8] = target: T1, Stimulator of interferon genes protein (Mus musculus); assay: Induction of STING-dependent gene expression in mouse BMDC cells assessed as IFNbeta mRNA expression at 20 uM incubated for 8 hrs by qRT-PCR analysis; type: cell-based; settings: filed as agonist
[9] = target: T1, Stimulator of interferon genes protein (Mus musculus); assay: Induction of STING dimerization in mouse BMDM cells assessed as dimerization (initially increase and then decreased) at 2.5 to 20 uM measured after 5 hrs by Western blot analysis; type: cell-based; settings: filed as agonist, dose 2.5-20 µM
[10] = target: Stimulator of interferon genes protein (Homo sapiens) (UniProt Q86WV6); assay: Induction of oligomerization of STING in HEK-293T cells stably expressing STING-Flag ( unknown origin) measured after 4 hrs by immunoprecipitation assay; type: cell-based; settings: filed as agonist
[11] = target: T1, Stimulator of interferon genes protein (Mus musculus); assay: Induction of STING dimerization in mouse BMDC cells assessed as dimerization (initially increase and then decreased) at 2.5 to 20 uM measured after 5 hrs by Western blot analysis; type: cell-based; settings: filed as agonist, dose 2.5-20 µM

Measured: Activity

O=C(NCCCCCCCCNC(=O)c1ccc([N+](=O)[O-])o1)c1ccc([N+](=O)[O-])o1
active: all assays above

O=C(NCCCCCCCCCNC(=O)c1ccc([N+](=O)[O-])o1)c1ccc([N+](=O)[O-])o1
not listed: Mus musculus [5] | Mus musculus [7]
active: all other assays above
